# Legend:
# blood-brain barrier = assay: Blood-brain barrier integrity by Evan's blue dye extravasation after cortical impact injury; type: in vivo, rat; conditions: for blood-brain barrier permeability (Evans Blue extravasation): measured 24 h after TBI, vs vehicle
# Method: Blood-brain barrier integrity was assessed using extravagation of Evan's blue (EB) dye. When injected through the jugular vein of normal animals, EB is not detected in the nervous tissue. However, if the blood-brain barrier is compromised, EB can be detected in nervous tissues. The amount of EB can be quantified by extracting the dye from the tissue followed by spectrophotometric analysis at 610 nm wavelength. One and one-half hours prior to the above time points, animals were anesthetized and injected with 3% EB in saline (4 ml/kg) through the jugular vein. Animals were transcardially perfused with phosphate-buffered saline (PBS) until the out-coming liquid was clear followed by 4% paraformaldehyde (400 ml). The brain was removed and 2 mm-thick sections were prepared and incubated with 3 ml of 99.5% formamide in a 60° C. water bath for 24 hr. At the end of the incubation, tissues were removed and the formamide solution was centrifuged in an Eppendorf centrifuge at 12,000 rpm for 20 min. The supernatant solution was collected and the optical density at 610 nm was measured to determine the relative amount of EB dye in each sample.
# aquaporin-4 (AQP4) = tested on: aquaporin-4 (AQP4)
# Excerpt: (§1) This model utilizes a pneumatic piston to deform a controllable volume of exposed cortex over a range of impact velocities. All protocols were in compliance with NIH's Guide for the Care and Use of Laboratory Animals and approved by the Institutional Animal Care and Use Committee. A controlled cortical impact device was used to cause brain trauma as previously described^6,7,26. Rats were anesthetized using 5% isoflurane with a 1:1 N2O:O2 mixture. The animals were then maintained with a 2% isoflurane/2:1 N2O:O2 mixture, via a face mask. Animals were mounted in the injury device stereotaxic frame secured by ear bars and an incisor bar. The head was held in a horizontal plane with respect to the interaural line. A midline incision was made, the soft tissues reflected, and bilateral 6 mm craniectomies were made midway between the bregma and lambda with the medial edge of each craniectomy 1 mm lateral to midline. Rats received a single impact at 1.8 mm deformation with an impact velocity of 6 m/sec at an angle of 20° from the vertical plane. Core body temperature was maintained at 37-38° C. by use of a rectal thermometer coupled to a heating pad. Sham rats were anesthetized and received craniectomies but were not cortically impacted. After injury or sham operation, the scalp was sutured and the animal placed in an oxygenated chamber and monitored during recovery. All rats were allowed to completely recover from the anesthesia after the surgery in a warm chamber before being sent back to the home cages. The type of brain trauma employed in this study produces both motor and cognitive deficits similar to those seen in human patients^6.
# (§2) Rats were killed and brains were removed quickly and dip-frozen in −80° C. isopentane for 20 sec.
# [1] = tested on: glial fibrilary acidic protein (GFAP); conditions: 24 hr after injury; vehicle vs SUL-treated animals
# Excerpt: as §1, §2
# [2] = tested on: endothelial barrier antigen (EBA); conditions: 5 mg/kg and 20 mg/kg i.p. at 6 h after injury; samples at 24 h; cortices ipsilateral to injury; P<0.05 vs vehicle
# Excerpt: as §1, §2
# [3] = tested on: von-Willebrand factor (vWF); conditions: administration six hours after injury; vs injury+vehicle
# Excerpt: as §1, §2
# [4] = tested on: tight junction proteins (claudin-5, occludin, ZO-1); conditions: administration six hours after injury; P<0.05 vs injury+vehicle
# Excerpt: as §1, §2
# [5] = tested on: rat endothelial cell antigen (RECA); conditions: 5 mg/kg and 20 mg/kg i.p. at 6 h after injury; samples at 24 h; cortices ipsilateral to injury; P<0.05 vs vehicle
# Excerpt: as §1, §2
# cortical cultures = conditions: pretreatment prior to hydrogen peroxide or glutamate exposure; in vitro; cited from earlier work
# AQP4 mRNA = conditions: 5 mg/kg i.p.; 24 hr post-administration; cortical tissue; vehicle 100.00±18.16%; mean±S.E.M., n=3; P<0.05
# Method: Animals were killed and parietal cortical tissues were quickly dissected out and frozen in dry ice. The frozen tissue was homogenized in 1.5ml of TriZol (Invitrogen) per 100 mg tissue, followed by addition of chloroform (1:5) and incubation on ice for 20 min. The homogenate was centrifuged at 14,000×g for 30 min, and total RNA was precipitated by isopropanol. 1.0 jig total RNA was reverse transcribed for 2 hours at 37° C. in a 20μl mixture containing 50 mM Tris-HCl pH 8.3, 75 mM KCl, 3.0 mM MgCl2, 10 mM DTT, 2.5 μM random hexamer, 1.0 mM each dNTP, 20 U RNasin, and 200 U Superscript II reverse transcriptase. The level of expression of each target gene was quantified using a BioRad iCycler real-time PCR system (BioRad, Hercules, CA). Reactions were carried out in triplicate. Each 30 μl reaction mixture consisted of 1.5 μl of the cDNA and 18 mM Tris-HCl pH 8.3, 55 mM KCl, 2.0 mM MgCl2, 0.2 mM of each dNTP, 0.5μM of each primer, 10 nM fluorescein, 1:75,000 dilution of Sybr green I, and 2 U AmpliTaq DNA polymerase. […] The resultant data was analyzed using the iCycler iQ Real-Time Detection System software^33.
# To assess the ability of SUL to induce AQP4 expression, rats were intraperitonealy injected with either 5 mg/kg SUL prepared in corn oil or equal volume of vehicle. […] AQP4 mRNA levels were evaluated using real-time PCR. […]
# brain swelling (edema) = conditions: P<0.05 vs vehicle
# Excerpt: as §1
# brain injured rats [6] = tested on: brain injured rats
# Excerpt: as §1
# [7] = tested on: focal cerebral ischemia (CCA/MCA occlusion); conditions: 5 mg/kg i.p. 15 minutes after onset of ischemia; 3 hours CCA/MCA occlusion; three days following ischemia; vehicle 153.87±11.01 mm^3; P<0.05
# Method: Focal ischemia was induced by temporary left common carotid/middle cerebral artery (CCA/MCA) occlusion^1,41. Briefly, rats were anesthetized with chloral hydrate (0.45 g/kg IP). Core body temperature was maintained at 36.5±0.5° C. during ischemia The ipsilateral CCA was isolated and tagged through a ventral, cervical midline incision. A 0.005-inch-diameter stainless steel wire (Small Parts Inc) was placed underneath the left MCA rostral to the rhinal fissure, proximal to the major bifurcation of the MCA, and distal to the lenticulostriate arteries. The artery was then lifted, and the wire was rotated clockwise to ensure occlusion. The CCA was next occluded with an atraumatic aneurysm clip. Cerebral perfusion at the cortical surface, 3 mm distal to the locus of the MCA occlusion, was measured with a laser-Doppler flowmeter (LDF) (model BPM2, Vesamedic). […] After 180 minutes of MCA/CCA occlusion, reperfusion was established by reversing the occlusion procedure. […]
# Morphometric determination of infarct volume was obtained with the help of a computer-based image analyzer operated by Brain software (Drexel University). […] The infarct volume (mm^3) was calculated from the difference between the volume of contralateral cortex and the volume of the TTC-stained (nonischemic) portion of ipsilateral cortex of each rat. […]
# brain injured rats [8] = conditions: 5 mg/kg i.p. 6 hr post-injury, P<0.05 vs vehicle
# Excerpt: as §1, with “All rats were allowed to completely recover from the anesthesia after the surgery in a warm chamber before being sent back to the home cages. The type of brain trauma employed in this study produces both motor and cognitive deficits similar to those seen in human patients^6.” left out
smiles,measurement,setting,value
C=CCN=C=S [allyl isothiocyanate],blood-brain barrier permeability (Evans Blue extravasation),blood-brain barrier; 2.8 mg/kg i.p. 6 hr after brain trauma,decreased blood-brain barrier permeability
C[S@@+]([O-])CCCCN=C=S [sulforaphane],AQP4 immuno-fluorescence intensity in the injury core,"aquaporin-4 (AQP4); 5 mg/kg i.p. at 6 hr after injury, 24 hr after injury, mean±S.E.M., n=4, injury-vehicle 13.79±2.22%, P<0.05",35.25±3.13%
same,AQP4 levels (fluorescence intensity) in the penumbra region,"aquaporin-4 (AQP4); post-injury administration, at both 24 hr and 3 days following injury, P<0.05 vs vehicle",significantly increased
same,GFAP immunoreactivity in the penumbra region,[1],lack of difference
same,"EBA staining, integrated fluorescent intensity",[2],significantly improves
same,vWF levels (immunoreactivity),[3],partially restored
same,"tight junction protein levels (claudin-5, occludin, ZO-1 immunoreactivity)",[4],significantly attenuated the loss
same,"RECA staining, integrated fluorescent intensity",[5],significantly improves
same,neuroprotection of cortical cultures,cortical cultures,robust neuroprotection
same,blood-brain barrier permeability (Evans Blue extravasation),blood-brain barrier; 5 mg/kg i.p. 6 hr after brain trauma,decreased blood-brain barrier permeability
same,Evan's blue dye extravasation into brain tissue (OD at 610 nm),"blood-brain barrier; 5 mg/kg i.p. at 6 h after TBI, 24 hr and 72 hr time points, ipsilateral side, P<0.05 vs vehicle",significantly attenuate dye extravasation
same,extravasation of Evan's Blue dye,"blood-brain barrier; oral 60 mg/kg/day for one or four days, day one given 6 hr following brain injury, P<0.05 vs vehicle",effective in decreasing the extravasation of Evan's Blue dye
same,AQP4 mRNA level,AQP4 mRNA,289.76±16.52%
same,difference in brain water content between injured and uninjured hemispheres,"brain swelling (edema); 5 mg/kg ip at 15 min and at 6 hr after injury, measured at 3 day following injury",significantly decreases the difference in brain water content
same,brain water content (difference in percent water content between injured and uninjured hemispheres),"brain swelling (edema); 5 mg/kg ip at 15 min and at 6 hr following injury, measured 24 hr following injury",decreases brain water content
same,increase in brain water content (difference between injured and uninjured hemispheres),"brain swelling (edema); delayed administration, 5 mg/kg ip at 6 hr after injury, measured at 3 days after injury",significantly reduces the increase in brain water content
same,spatial learning and memory (latency to find the hidden platform),"brain injured rats [6]; 5 mg/kg 6 hr post-injury, days 14-18 post-injury, n=9, P<0.05 vs vehicle",improved spatial learning and memory
same,"working memory: latency to hidden platform, match trial vs location trial","brain injured rats [6]; 5mg/kg i.p. 6 hr post-injury, tested day 21 post-injury, n=8, P<0.05",find the hidden platform significantly faster during the match trial
same,total infarct volume,[7],100.52±16.35 mm^3
same,extinction of fear memory (freezing during extinction training),"brain injured rats [8]; extinction on day 23 post-injury, n=8",Extinction was more rapid
same,memory for the extinction event (freezing to the tone),"brain injured rats [8]; tested 48 hr following extinction training, 3 tone presentations",reduced freezing to the tone
S=C=NCCc1ccccc1 [phenylethyl isothiocyanate],blood-brain barrier permeability (Evans Blue extravasation),blood-brain barrier; 4.6 mg/kg i.p. 6 hr after brain trauma,decreased blood-brain barrier permeability

# From patent US20060116423A1, “Methods and compositions for treatment of central nervous system injury with isothiocyanates” (priority 2004, published 2006)
